Patent publication US20240254138A1, “TRICYCLIC PYRIMIDINES AS CYCLIN-DEPENDENT KINASE 7 (CDK7) INHIBITORS” (JANSSEN PHARMACEUTICA NV, priority 2021, published 2024)
Read-outs that look alike come from different tables or passages of the source.

Tests used:
[1] = test system: RNA Polymerase II Serine 5 phosphorylation (Rpb1 CTD, downstream substrate of CDK7) in A549 cells; test: Imaging-based cellular RNA PolII Ser5 phosphorylation assay in A549 cells; format: cell-based, human; conditions: wild-type CDK7, RNA PolII Ser5 phosphorylation, averaged over all measurements; for IC50: Homo sapiens, A549, A549 cells, read-out: CDK7_A549 Wild-type CDK7 (pIC50) (converted); for CDK7_A549 Wild-type CDK7 (pIC50): A549 cells
Method in brief: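 IC50 derived by fitting % control (DMSO high, 10 μM reference low) against concentration, with Hill slope. Readout: high-content imaging of phospho-Ser5 Rpb1 CTD antibody staining in fixed, permeabilized A549 cells exposed to compound 3 h after 20 h culture in 1% FBS DMEM.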

[2] = test system: RNA Polymerase II Serine 5 phosphorylation in A549 cells overexpressing CDK7-mutant (C312S); test: Imaging-based cellular RNA PolII Ser5 phosphorylation assay in A549 cells overexpressing CDK7-mutant (C312S); format: cell-based, human; conditions: RNA PolII Ser5 phosphorylation, averaged over all measurements; for IC50: Homo sapiens, A549, A549 cells overexpressing CDK7-mutant (C312S), read-out: CDK7_A549 mutant hCDK7(pIC50) (converted); for CDK7_A549 mutant hCDK7(pIC50): A549 cells overexpressing CDK7-mutant (C312S)
Method in brief: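 Readout was automated imaging of anti-phospho-Ser5 Rpb1 CTD immunofluorescence, with IC50 fitted to % control versus concentration. Cells were A549 stably overexpressing non-covalently targetable CDK7 C312S alongside wild-type, exposed to compound 3 h at 37 °C. DMSO and 10 μM reference compound served as controls.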

[3] = biological target: CDK7/cyclinH/MAT1 trimeric complex (Homo sapiens, UniProt P50613); test: In vitro CDK7 assay, potency of irreversible covalent inhibitors (kinact/KI), coupled PK/LDH ADP readout at 340 nm; conditions: for Ki: CDK7 (20 nM enz.) (KI, μM); for kinact: read-out: CDK7 (20 nM enz.) (kinact, s^−1), 20 nM enzyme; for CDK7 (kinact/KI, M^−1*s^−1): potency of irreversible covalent inhibitors, 1 mM ATP, room temperature, averaged values over all measurements
[4] = read-out: CDK7 (20 nM enz.) (kinact/KI, M^−1*s^−1), 20 nM enzyme
[5] = read-out: CDK7 (20 nM enz.) (kobs/[I], M^−1*s^−1), 20 nM enzyme

CDK7/cyclinH/MAT1 trimeric complex, sequence (P50613 whole entry): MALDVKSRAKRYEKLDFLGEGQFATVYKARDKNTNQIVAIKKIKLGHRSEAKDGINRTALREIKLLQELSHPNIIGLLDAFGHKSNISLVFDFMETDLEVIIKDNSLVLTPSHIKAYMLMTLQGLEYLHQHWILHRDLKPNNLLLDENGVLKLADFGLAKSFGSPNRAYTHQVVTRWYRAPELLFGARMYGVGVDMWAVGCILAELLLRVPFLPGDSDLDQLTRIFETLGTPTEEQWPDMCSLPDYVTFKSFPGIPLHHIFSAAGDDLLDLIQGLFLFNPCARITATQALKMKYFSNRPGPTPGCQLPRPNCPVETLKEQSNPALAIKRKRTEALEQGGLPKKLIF
CDK7/cyclinH/MAT1 trimeric complex, sequence (P51946 whole entry partner): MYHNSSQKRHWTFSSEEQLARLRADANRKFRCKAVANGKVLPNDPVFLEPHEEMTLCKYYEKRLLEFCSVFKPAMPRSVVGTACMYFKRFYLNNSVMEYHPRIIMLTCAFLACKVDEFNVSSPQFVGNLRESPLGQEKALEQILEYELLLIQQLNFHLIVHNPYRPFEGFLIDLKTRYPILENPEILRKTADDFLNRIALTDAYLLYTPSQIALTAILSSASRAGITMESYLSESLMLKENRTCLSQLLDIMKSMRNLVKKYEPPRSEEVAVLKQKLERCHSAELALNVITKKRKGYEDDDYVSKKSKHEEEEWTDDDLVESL
CDK7/cyclinH/MAT1 trimeric complex, sequence (P51948 whole entry partner): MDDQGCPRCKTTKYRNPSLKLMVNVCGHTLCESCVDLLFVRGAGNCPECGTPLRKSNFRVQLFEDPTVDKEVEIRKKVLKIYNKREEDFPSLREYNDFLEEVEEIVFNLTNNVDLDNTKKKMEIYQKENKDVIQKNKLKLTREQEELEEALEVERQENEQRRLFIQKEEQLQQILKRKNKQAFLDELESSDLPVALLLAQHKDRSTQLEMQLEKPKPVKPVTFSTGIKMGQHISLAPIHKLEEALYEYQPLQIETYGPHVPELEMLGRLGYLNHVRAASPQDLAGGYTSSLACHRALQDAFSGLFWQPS

| SMILES | IC50 [1] [nM] | IC50 [2] [nM] | melting point [°C] | Ki ([3]; 20 nM enzyme) [µM] | kinact [3] [s⁻¹] | kinact/KI [3, 4] [M⁻¹ s⁻¹] | CDK7_A549 Wild-type CDK7 (pIC50) [1] | CDK7_A549 mutant hCDK7(pIC50) [2] | CDK7 (20 nM enz.) (kinact, s^−1) ([3]; 20 nM enzyme) [s⁻¹] | CDK7 (20 nM enz.) (kinact/KI, M^−1*s^−1) ([3]; 20 nM enzyme) [M⁻¹ s⁻¹] | kinact/KI [3, 5] [M⁻¹ s⁻¹] | CDK7 (kinact/KI, M^−1*s^−1) [3] [M⁻¹ s⁻¹] |
| --- | --- | --- | --- | --- | --- | --- | --- | --- | --- | --- | --- | --- |
| C=CC(=O)N1CC(N2CCC(c3ccc4c(c3)Nc3nccc(-c5cnn(C)c5)c3[C@H](C)O4)CC2)C1 (single isomer, unassigned) [Compound 128] | 4470 | > 10000 | 223.3 | 10.2 | 0.000115 | 11.3 | – | – | – | – | – | – |
| C=CC(=O)N1CC(N2CC[C@H](c3cc4c(c(C)n3)O[C@@H](C)c3c(N5CCOCC5)ccnc3N4)C2)C1 (single isomer, unassigned) [Compound 218] | 8510 | > 10000 | > 300 | – | – | 0.84 | – | – | – | – | – | – |
| C=CC(=O)N1CC[C@H](N2CCC(c3ccc4c(c3)Nc3ncc(F)c(N5CCOCC5)c3CO4)CC2)C1 (single isomer, unassigned) [Compound 222] | 97.7 | > 10000 | 138 | 0.18 | 7.49e-05 | 416 | – | – | – | – | – | – |
| C=CC(=O)N1CC[C@@H](N2CCC(c3ccc4c(c3)Nc3ncc(F)c(N5CCOCC5)c3CO4)CC2)C1 (single isomer, unassigned) [Compound 223] | 41.7 | 7590 | 106 | 0.127 | 6.11e-05 | 480 | – | – | – | – | – | – |
| C=CC(=O)N1CC(N2CCC(c3cc4c(c(C)n3)O[C@H](C)c3c(N5CCOCC5)ccnc3N4)CC2)C1 (single isomer, unassigned) [Compound 262] | 29.5 | > 10000 | 225 | 0.0323 | 3.71e-05 | 1150 | – | – | – | – | – | – |
| C=CC(=O)N1CC(N2CCC(c3cc4c(cn3)O[C@H](C)c3c(N5CCOCC5)ccnc3N4)CC2)C1 (single isomer, unassigned) [Compound 263] | 51.3 | > 3980 | > 300 | 0.168 | 5.18e-05 | 308 | – | – | – | – | – | – |
| C=CC(=O)N1CC(N2CCC(c3cc4c(c(C)n3)O[C@@H](C)c3c(N5CCOCC5)ccnc3N4)CC2)C1 (single isomer, unassigned) [Compound 265] | 2090 | > 10000 | 288.5 | – | – | – | – | – | – | – | – | – |
| C#Cc1cc(C2CCN(C3CN(C(=O)C=C)C3)CC2)cc2c1O[C@H](C)c1c(N3CCOCC3)ccnc1N2 (single isomer, unassigned) [Compound 268] | 1070 | > 10000 | 236.7 | 0.934 | 4.13e-05 | 44.2 | – | – | – | – | – | – |
| C=CC(=O)N1CC(N2CCC(c3cc(C#N)c4c(c3)Nc3nccc(N5CCOCC5)c3[C@H](C)O4)CC2)C1 (single isomer, unassigned) [Compound 353] | 209 | > 10000 | 220.7 | 4.52 | 0.000132 | 29.2 | – | – | – | – | – | – |
| C=C(C(=O)N1CC(N2CCC(c3cc4c(c(C)n3)O[C@@H](C)c3c(N5CCOCC5)ccnc3N4)CC2)C1)n1cccn1 (single isomer, unassigned) [Compound 523] | 97.7 | > 10000 | 148 | 0.0496 | 1.97e-05 | 398 | – | – | – | – | – | – |
| C=CC(=O)N1CCC(C2CN(c3cc4c(c(C)n3)OCc3c(N5CCOCC5)ccnc3N4)C2)CC1 [Compound 439] | 1100 | > 10000 | – | 0.401 | 1.01e-05 | 25.2 | – | – | – | – | – | – |
| C=CC(=O)N1CCC(N2CC(c3cc4c(c(C(F)(F)F)n3)OCc3c(N5CCOCC5)ccnc3N4)C2)CC1 [Compound 453] | – | – | – | 0.0717 | – | – | 7.13 | 5.54 | 3.153e-05 | 439.69 | – | – |
| C=CC(=O)N1CCC(N2CCC(c3cc4c(c(C)n3)OCc3c(N5CCOCC5)ccnc3N4)CC2=O)CC1 (centres unmarked) [Compound 476] | 550 | > 10000 | – | 0.236 | 2.18e-05 | 92.5 | – | – | – | – | – | – |
| CC#CC(=O)N1CCC(N2CCC(c3cc4c(c(C)n3)OCc3c(N5CCOCC5)ccnc3N4)CC2=O)CC1 (centres unmarked) [Compound 484] | 141 | > 10000 | – | – | – | 289 | – | – | – | – | – | – |
| CC#CC(=O)N1CCC(N2CC(c3cc4c(c(C(F)(F)F)n3)OCc3c(N5CCOCC5)ccnc3N4)C2)CC1 [Compound 490] | 74.1 | 3310 | – | – | – | 473 | – | – | – | – | – | – |
| C=C(C(=O)N1CC(N2CCC(c3cc4c(c(C)n3)OCc3c(N5CCOCC5)ccnc3N4)CC2)C1)n1cccn1 [Compound 496] | 14.1 | 7240 | – | – | – | – | – | – | – | – | 680 | – |

More lines, now with the values ahead:

| IC50 [1] [nM] | IC50 [2] [nM] | melting point [°C] | Ki ([3]; 20 nM enzyme) [µM] | kinact [3] [s⁻¹] | kinact/KI [3, 4] [M⁻¹ s⁻¹] | CDK7_A549 Wild-type CDK7 (pIC50) [1] | CDK7_A549 mutant hCDK7(pIC50) [2] | CDK7 (20 nM enz.) (kinact, s^−1) ([3]; 20 nM enzyme) [s⁻¹] | CDK7 (20 nM enz.) (kinact/KI, M^−1*s^−1) ([3]; 20 nM enzyme) [M⁻¹ s⁻¹] | kinact/KI [3, 5] [M⁻¹ s⁻¹] | CDK7 (kinact/KI, M^−1*s^−1) [3] [M⁻¹ s⁻¹] | SMILES |
| --- | --- | --- | --- | --- | --- | --- | --- | --- | --- | --- | --- | --- |
| 14.1 | > 2510 | 131.3 | 0.0767 | 2.61e-05 | 340 | – | – | – | – | – | – | C=C(C(=O)N1CC(N2CCC(c3cc4c(c(C)n3)O[C@H](C)c3c(N5CCOCC5)ccnc3N4)CC2)C1)n1cccn1 (single isomer, unassigned) [Compound 526] |
| 1740 | > 10000 | – | 0.0408 | 1.66e-05 | 409 | – | – | – | – | – | – | CC#CC(=O)N1CCC(N2CC(c3cc4c(c(C#N)n3)OCc3c(-c5cnn(C)c5)ccnc3N4)C2)C1 (centres unmarked) [Compound 529] |
| 427 | 10200 | – | 0.0823 | 1.52e-05 | 184 | – | – | – | – | – | – | Cc1nc(C2CN(C3CCN(C(=O)/C=C/CN(C)C)CC3)C2)cc2c1OCc1c(-c3cnn(C)c3)ccnc1N2 [Compound 532] |
| > 10000 | > 10000 | – | 6.8 | – | – | – | – | – | – | – | – | C=C(C)C(=O)N1CC(N2CCC(c3cc4c(c(C)n3)OCc3c(-c5cnn(C)c5)ccnc3N4)CC2)C1 [Compound 536] |
| 1320 | > 10000 | – | 0.0196 | – | – | – | – | – | – | – | – | C=C(F)C(=O)N1CC(N2CCC(c3cc4c(c(C)n3)OCc3c(-c5cnn(C)c5)ccnc3N4)CC2)C1 [Compound 539] |
| 550 | > 10000 | – | 0.0301 | 7.15e-05 | 2310 | – | – | – | – | – | – | Cc1nc(C2CCN(C3CN(C(=O)/C=C/CN(C)C)C3)CC2)cc2c1OCc1c(-c3cnn(C)c3)ccnc1N2 [Compound 540] |
| – | – | – | – | – | – | 6.84 | <5 | – | – | – | 1065.34 | C=CC(=O)N1CC(N2CCC(c3ccc4c(c3)Nc3nccc(N5CCOCC5)c3CO4)CC2)C1 [compound 7] |
| – | – | – | 0.13 | 7.07e-05 | 545 | 6.4 | <5 | – | – | – | 710 | C=CC(=O)N1CC(N2CCC(c3ccc4c(c3)Nc3nccc(N5CCS(=O)(=O)CC5)c3CO4)CC2)C1 [compound 14] |
| – | – | – | – | – | – | 7.26 | <5 | – | – | – | 320.6 | C=CC(=O)N1CC(N2CCC(c3ccc4c(c3)Nc3nccc(C5CCOCC5)c3CO4)CC2)C1 [compound 15] |
| – | – | – | – | – | – | 6.81 | <5 | – | – | 1030 | 2083.98 | C=CC(=O)N1CC(N2CCC(c3ccc4c(c3)Nc3nccc(C5CCOCC5)c3CO4)CC2)C1 [compound 34] |
